Assay results taken from US20090111811A1, “1,2,4-TRIAZOLE CARBOXYLIC ACID DERIVATIVES AS MODULATORS OF MGLUR5” (AstraZeneca AB, priority 2007, published 2009).

How the values were obtained:
human mGluR5d = molecular target: T1, human mGluR5d (Homo sapiens, UniProt P41594); assay: FLIPR assay, functional assessment of mGluR5 antagonism (intracellular calcium mobilization); format: cell-based; details: cells expressing human mGluR5d; IC50 determination; read-out: FLIPR hmGluR5d
T1 construct: expressed in transfected cells; The cells are kept under Hygromycin B and Zeocin selection; The separate IP3 assay names GHEK cells stably expressing human mGluR5d
Source text: Functional Assessment of mGluR5 Antagonism in Cell Lines Expressing mGluR5D
The properties of the compounds of the invention can be analyzed using standard assays for pharmacological activity. Examples of glutamate receptor assays are well known in the art as described in for example Aramori et al., Neuron 8:757 (1992), Tanabe et al., Neuron 8:169 (1992), Miller et al., J. Neuroscience 15: 6103 (1995), Balazs, et al., J Neurochemistry 69:151 (1997). The methodology described in these publications is incorporated herein by reference. […]
Cells expressing human mGluR5d as described in WO97/05252 cultured in a mixture of high glucose DMEM with Glutamax (31966-021)(500 mL), 10% dialyzed fetal bovine serum (Hyclone #SH30079.03)(56 mL), 200 μg/mL Hygromycin B (Invitrogen 45-0430, 50 mg/mL)(2.2 mL), 200 μg/mL Zeocin (Invitrogen #R250-01; 100 mg/mL)(1.1 mL) are seeded at a density of 100,000 cells per well on collagen coated clear bottom 96-well plates with black sides and cells were allowed to adhere over night before experiments. […] The fluorescence signal is sampled 50 times at 1-second intervals followed by 3 samples at 5-second intervals immediately after each of the two additions. Responses are measured as the difference between the peak heights of the response to agonist, less the background fluorescence within the sample period. […]

[1] = Determination of brain to plasma ratio in rat; format: in vivo; details: brain and plasma, female Sprague Dawley rats, read-out: Brain/Plasma Ratio of compound in Rat
Description: Brain to plasma ratios are estimated in female Sprague Dawley rats. The compound is dissolved in water or another appropriate vehicle. For determination of brain to plasma ratio the compound is administrated as a subcutaneous, or an intravenous bolus injection, or an intravenous infusion, or an oral administration. At a predetermined time point after the administration a blood sample is taken with cardiac puncture. The rat is terminated by cutting the heart open, and the brain is immediately retained. The blood samples are collected in heparinized tubes and centrifuged within 30 minutes, in order to separate the plasma from the blood cells. The plasma is transferred to 96-well plates and stored at −20° C. until analysis. The brains are divided in half, and each half is placed in a pre-tarred tube and stored at −20° C. until analysis. Prior to the analysis, the brain samples are thawed and 3 mL/g brain tissue of distilled water is added to the tubes. The brain samples are sonicated in an ice bath until the samples are homogenized. Both brain and plasma samples are precipitated with acetonitrile. After centrifugation, the supernatant is diluted with 0.2% formic acid. […] After reconstitution of the residuals the samples are ready for injection onto the HPLC column.

T1 sequence (P41594 21-942 isoform P41594-3 limits assumed): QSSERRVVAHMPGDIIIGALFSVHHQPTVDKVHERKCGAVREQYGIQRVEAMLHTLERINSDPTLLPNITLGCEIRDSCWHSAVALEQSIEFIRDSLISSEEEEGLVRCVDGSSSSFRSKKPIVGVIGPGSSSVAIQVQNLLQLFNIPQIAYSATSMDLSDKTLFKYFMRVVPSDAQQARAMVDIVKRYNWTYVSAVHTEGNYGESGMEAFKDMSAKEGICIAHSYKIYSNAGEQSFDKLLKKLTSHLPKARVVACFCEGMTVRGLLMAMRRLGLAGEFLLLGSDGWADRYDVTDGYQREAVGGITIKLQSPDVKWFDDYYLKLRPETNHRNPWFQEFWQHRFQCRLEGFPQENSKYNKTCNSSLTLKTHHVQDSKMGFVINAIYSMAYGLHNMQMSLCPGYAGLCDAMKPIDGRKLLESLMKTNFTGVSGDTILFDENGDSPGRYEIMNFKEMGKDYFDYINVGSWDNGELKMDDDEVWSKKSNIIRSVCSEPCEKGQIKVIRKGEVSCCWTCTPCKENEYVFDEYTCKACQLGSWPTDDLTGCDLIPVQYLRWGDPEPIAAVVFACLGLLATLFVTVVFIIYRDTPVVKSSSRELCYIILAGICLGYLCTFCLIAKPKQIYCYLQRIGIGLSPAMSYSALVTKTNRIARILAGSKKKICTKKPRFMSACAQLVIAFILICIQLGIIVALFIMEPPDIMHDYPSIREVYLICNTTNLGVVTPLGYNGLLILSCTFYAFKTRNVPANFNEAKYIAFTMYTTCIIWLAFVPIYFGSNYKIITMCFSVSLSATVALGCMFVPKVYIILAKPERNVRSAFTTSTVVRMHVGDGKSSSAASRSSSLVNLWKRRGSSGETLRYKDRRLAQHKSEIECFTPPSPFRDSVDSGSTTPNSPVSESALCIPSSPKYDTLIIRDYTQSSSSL

IC50 (human mGluR5d)	Kp [1]	SMILES
16 nM	< 0.01	CNC(=O)c1ccc(-c2nnc(N3CCC[C@@H]3c3cc(-c4cccc(Cl)c4)on3)n2C)cc1 [Example 6.2, 4-[5-[(2R)-2-[5-(3-Chlorophenyl)1,2-oxazol-3-yl]pyrrolidin-1-yl]-4-methyl-1,2,4-triazo1-3-yl]-N-methyl-benzamide]
11 nM	< 0.01	Cn1c(-c2ccc(C(N)=O)cc2)nnc1N1CCC[C@@H]1c1cc(-c2cccc(Cl)c2)on1 [Example 6.1, 4-[5-[(2R)-2-[5-(3-Chlorophenyl)1,2-oxazol-3-yl]pyrrolidin-1-yl]-4-methyl-1,2,4-triazol-3-yl]benzamide]
